The target of the experiment is human mGlu5a receptor (Homo sapiens (Human), UniProt P41594). Briefly: Intracellular Ca2+ mobilization assay (mGlu5 PAM). It is filed as cell-based. The conditions noted are these: for EC50: HEK-293 cells stably transfected with human mGlu5a, L-glutamate added at EC20 (typically around 80 μM); for Emax / Eff. (%): maximal response in % of the maximal stimulatory effect obtained with saturating concentrations of L-glutamate; for Emax: read-out: Eff. (%). On the procedure:
A monoclonal HEK-293 cell line stably transfected with a cDNA encoding for the human mGlu5a receptor was generated; for the work with mGlu5 Positive Allosteric Modulators (PAMs), a cell line with low receptor expression levels and low constitutive receptor activity was selected to allow the differentiation of agonistic versus PAM activity. Cells were cultured according to standard protocols (Freshney, 2000) in Dulbecco's Modified Eagle Medium with high glucose supplemented with 1 mM glutamine, 10% (vol/vol) heat-inactivated bovine calf serum, Penicillin/Streptomycin, […] hygromycin and 15 μg/ml blasticidin (all cell culture reagents and antibiotics from Invitrogen, Basel, Switzerland).
About 24 hrs before an experiment, 5×10^4 cells/well were seeded in poly-D-lysine coated, black/clear-bottomed 96-well plates. The cells were loaded with 2.5 μM Fluo-4AM in loading buffer (1×HBSS, 20 mM HEPES) for 1 hr at 37° C. and washed five times with loading buffer. The cells were transferred into a Functional Drug Screening System 7000 (Hamamatsu, Paris, France), and 11 half logarithmic serial dilutions of test compound at 37° C. were added and the cells were incubated for 10-30 min. with on-line recording of fluorescence. Following this pre-incubation step, the agonist L-glutamate was added to the cells at a concentration corresponding to EC20 (typically around 80 μM) with on-line recording of fluorescence; in order to account for day-to-day variations in the responsiveness of cells, the EC20 of glutamate was determined immediately ahead of each experiment by recording of a full dose-response curve of glutamate.
Responses were measured as peak increase in fluorescence minus basal (i.e. fluorescence without addition of L-glutamate), normalized to the maximal stimulatory effect obtained with saturating concentrations of L-glutamate. Graphs were plotted with the % maximal stimulatory using XLfit, a curve fitting program that iteratively plots the data using Levenburg Marquardt algorithm. The single site competition analysis equation used was y=A+((B−A)/(1+((x/C)D))), where y is the % maximal stimulatory effect, A is the minimum y, B is the maximum y, C is the EC50, x is the log 10 of the concentration of the competing compound and D is the slope of the curve (the Hill Coefficient). From these curves the EC50 (concentration at which half maximal stimulation was achieved), the Hill coefficient as well as the maximal response in % of the maximal stimulatory effect obtained with saturating concentrations of L-glutamate were calculated.
A depression of the signal observed after addition of the EC20 concentration of L-glutamate was indicative of an inhibitory activity of the test compound.

Sequence of human mGlu5a receptor (P41594 other isoform, or with tags, fused parts or gaps): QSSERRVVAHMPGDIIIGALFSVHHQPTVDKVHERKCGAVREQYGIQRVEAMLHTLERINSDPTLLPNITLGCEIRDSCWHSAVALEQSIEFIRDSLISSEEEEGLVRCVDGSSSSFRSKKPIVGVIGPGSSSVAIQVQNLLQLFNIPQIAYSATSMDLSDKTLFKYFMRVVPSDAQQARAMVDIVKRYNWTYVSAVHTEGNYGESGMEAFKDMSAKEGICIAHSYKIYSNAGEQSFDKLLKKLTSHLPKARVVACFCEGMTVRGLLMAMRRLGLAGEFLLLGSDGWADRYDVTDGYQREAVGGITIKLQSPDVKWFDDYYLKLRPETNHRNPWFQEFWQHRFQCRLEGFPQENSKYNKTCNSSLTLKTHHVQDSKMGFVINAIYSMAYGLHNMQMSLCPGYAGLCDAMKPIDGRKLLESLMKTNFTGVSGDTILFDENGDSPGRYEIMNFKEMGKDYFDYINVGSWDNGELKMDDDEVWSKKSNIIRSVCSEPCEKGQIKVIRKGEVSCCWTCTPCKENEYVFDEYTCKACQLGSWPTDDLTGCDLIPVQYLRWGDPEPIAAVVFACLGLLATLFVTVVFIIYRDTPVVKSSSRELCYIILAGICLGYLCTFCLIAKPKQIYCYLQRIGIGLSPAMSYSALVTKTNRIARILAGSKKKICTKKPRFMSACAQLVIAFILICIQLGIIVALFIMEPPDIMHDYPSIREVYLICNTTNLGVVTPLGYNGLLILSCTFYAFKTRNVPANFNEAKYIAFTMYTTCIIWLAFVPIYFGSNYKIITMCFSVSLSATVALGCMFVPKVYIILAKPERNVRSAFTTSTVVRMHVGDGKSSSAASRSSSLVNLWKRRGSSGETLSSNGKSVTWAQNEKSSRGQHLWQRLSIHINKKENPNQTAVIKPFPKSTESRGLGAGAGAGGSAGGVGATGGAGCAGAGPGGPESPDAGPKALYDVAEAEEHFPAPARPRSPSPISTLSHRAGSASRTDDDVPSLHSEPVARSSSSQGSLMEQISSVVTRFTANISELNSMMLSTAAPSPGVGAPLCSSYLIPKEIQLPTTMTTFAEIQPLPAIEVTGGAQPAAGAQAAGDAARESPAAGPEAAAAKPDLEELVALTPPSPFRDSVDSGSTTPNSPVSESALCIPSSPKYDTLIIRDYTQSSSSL

Regarding `CN1C(=O)[C@H](c2ccc(C#Cc3ccccc3)cn2)[C@@H]2CCCC[C@@H]21` (racemic) [Example 35, (3SR,6SR,7SR)-1-Methyl-3-(5-phenylethynyl-pyridin-2-yl)-octahydro-indol-2-one], the response was half-maximal at 101 nM (EC50) and the Emax amounted to 60%.
`CN1C(=O)[C@@H](c2ccc(C#Cc3cccc(F)c3)cn2)[C@@H]2CCCC[C@@H]21` (racemic) [Example 38, (3RS,6SR,7SR)-3-[5-(3-Fluoro-phenylethynyl)-pyridin-2-yl]-1-methyl-octahydro-indol-2-one]: the EC50 is 69 nM and the Emax was determined as 60%.
In the same order, the values of `CN1C(=O)[C@H](c2ccc(C#Cc3cccc(F)c3)cn2)[C@@H]2CCCC[C@@H]21` (racemic) [Example 39, (3SR,6SR,7SR)-3-[5-(3-Fluoro-phenylethynyl)-pyridin-2-yl]-1-methyl-octahydro-indol-2-one] are 141 nM and 61%.
In the same order, the values of `CN1C(=O)C(c2ccc(C#Cc3ccnc(Cl)c3)cn2)CC1(C)C` (racemic) [Example 44, (RS)-3-[5-(2-Chloro-pyridin-4-ylethynyl)-pyridin-2-yl]-1,5,5-trimethyl-pyrrolidin-2-one] are 88 nM and 32%.
As to `CN1CCCC[C@@H](c2ccc(C#Cc3ccccc3)cn2)C1=O` (single isomer, unassigned) [Example 25, (S or R)-1-Methyl-3-(5-phenylethynyl-pyridin-2-yl)-azepan-2-one], the half-maximal effective concentration (EC50) was found to be 35 nM and the Emax worked out at 70%.
For `CN1CCCC[C@H](c2ccc(C#Cc3ccccc3)cn2)C1=O` (single isomer, unassigned) [Example 26, (R or S)-1-Methyl-3-(5-phenylethynyl-pyridin-2-yl)-azepan-2-one], in that order: 265 nM and 69%.
With `CN1C(=O)[C@@H](c2ccc(C#Cc3ccccc3)cn2)[C@@H]2CCC[C@@H]21` (single isomer, unassigned) [Example 28, (3R,3aS,6aS) or (3S,3aR,6aR)-1-Methyl-3-(5-phenylethynyl-pyridin-2-yl)-hexahydro-cyclopenta[b]pyrrol-2-one], the EC50 stood at 24 nM and the “Eff. (%)” value came out at 58%.
As for `CN1C(=O)[C@@H](c2ccc(C#Cc3cccc(F)c3)cn2)[C@@H]2CCC[C@@H]21` (single isomer, unassigned) [Example 31, (3R,3aS,6aS) or (3S,3aR,6aR)-3-[5-(3-Fluoro-phenylethynyl)-pyridin-2-yl]-1-methyl-hexahydro-cyclopenta[b]pyrrol-2-one], the concentration for a half-maximal effect (EC50) was determined as 25 nM and the “Eff. (%)” value is given as 51%.
On to `CN1C(=O)[C@H](c2ccc(C#Cc3cccc(F)c3)cn2)[C@H]2CCC[C@H]21` (single isomer, unassigned) [Example 32, (3S,3aR,6aR) or (3R,3aS,6aS)-3-[5-(3-Fluoro-phenylethynyl)-pyridin-2-yl]-1-methyl-hexahydro-cyclopenta[b]pyrrol-2-one], for which the response was half-maximal at 48 nM (EC50) and the Emax stood at 68%.
Regarding `CN1C(=O)[C@@H](c2ccc(C#Cc3ccnc(Cl)c3)cn2)CC1(C)C` (single isomer, unassigned) [Example 45, (S) or (R)-3-[5-(2-Chloro-pyridin-4-ylethynyl)-pyridin-2-yl]-1,5,5-trimethyl-pyrrolidin-2-one], the EC50 came to 65 nM and the Emax came to 36%.
For `CN1C(=O)[C@H](c2ccc(C#Cc3ccnc(Cl)c3)cn2)CC1(C)C` (single isomer, unassigned) [Example 46, (R) or (S)-3-[5-(2-Chloro-pyridin-4-ylethynyl)-pyridin-2-yl]-1,5,5-trimethyl-pyrrolidin-2-one], in that order: 103 nM and 40%.

Source of the values: patent US9212171B2, “Ethynyl compounds” (Hoffmann-La Roche Inc., priority 2011, dated 2015).
